Measured values reported in patent publication US11773188B2, “Chitosan-derived compositions” (Immunophotonics, Inc, priority 2012, dated 2023).
Like-named read-outs stand apart in the source and are kept apart here.

Tests used:
[1] = system: Line 1 lung adenocarcinoma; settings: no GC, 8 mice
Text: To evaluate photodynamic therapy as a the method for direct tumor destruction in combination with glycated chitosan, a combination of photofrin- and meso-substituted tetra (meta-hydroxy-phenyl) chlorin-(mTHPC) based photodynamic therapy and glycated chitosan injection was been studied in the EMT6 mammary sarcoma and Line 1 lung adenocarcinoma mouse models, respectively. In each model, BALB/c mice were subcutaneously inoculated with 10^6 viable tumor cells into the lower dorsal area. Tumors were treatment size (7 to 8 mm) after 7 days.
A 0.1 mg/kg dose of mTHPC was intravenously administered 24 h prior to irradiation. Animals were shielded from direct light immediately after the photosensitizer injection until 3 days after photodynamic treatment. Mice were restrained anaesthetized in holders exposing their backs during light treatment. A 652 nm light from a 0.25 W diode laser was delivered through an 8 mm diameter liquid light guide. The power density was set at 110 mW/cm^2, fora total light dose of 30 J/cm^2.

breast cancer = system: breast cancer
Experimental: In one exemplary clinical study, two breast cancer patients received cyclophosphamide weekly (after inCVAX treatment) at a dose of between 150 and 200 mg/m^2. […] The patients continued to receive the low dose chemotherapy.

EMT6 mammary sarcoma = test: Photofrin-based photodynamic therapy and glycated chitosan in EMT6 model; assay type: in vivo, BALB/c mice; settings: 8 mice
Experimental: In each model, BALB/c mice were subcutaneously inoculated with 10^6 viable tumor cells into the lower dorsal area. Tumors were treatment size (7 to 8 mm) after 7 days.
In the EMT6 mammary sarcoma model, treatment groups evaluated are detailed in the table below. Photofrin (Mont-Saint-Hilaire, Quebec, Canada) was prepared in 5% sterile dextrose to a 1 mg/mL concentration. A 5 mg/kg dose of photofrin was intravenously administered 24 h prior to irradiation. Animals were shielded from direct light immediately after the photosensitizer injection until 3 days after photodynamic treatment. Mice were restrained anaesthetized in holders exposing their backs during light treatment. Light (630 nm) was delivered through an 8 mm diameter liquid light guide. The power density was set at 100 mW/cm^2, for a total light dose of 60 J/cm^2. Immediately after light irradiation, if applicable, animals were administered a peritumoral dose of 0.5 or 1.5% glycated chitosan.

[2] = system: DMBA-4 transplantable, metastatic mammary tumor; test: Different components of laser-assisted immunotherapy in metastatic breast tumor-bearing rats; assay type: in vivo, Wistar Furth rats; settings: 0.25% ICG injection only, 0.2 mL intratumoral; 12 rats; all rats dying
Experimental: The laser-assisted immunotherapy system consisted of a near-infrared laser diode laser with a maximum output of 25 W; the laser-absorbing dye, indocyanine green; and the immunoadjuvant, glycated chitosan. When the primary tumor was 0.2 to 0.5 cm^3, treatment was initiated in the tumor-bearing rats. A solution of 0.2 mL of GC and/or ICG was injected into the center of the primary tumor in all groups. In rats receiving laser treatment, the injections occurred 2 h before irradiation, with animals anesthetized and the hair overlaying the tumor clipped. The laser settings were 2 W and 10 min, with the laser fiber tip maintained a distance of 4 mm from the overlying skin and the laser energy directed to the treatment sites through optical fibers. The animals were individually housed following treatment. In the survival studies, the breast or prostate tumor-bearing rats were observed daily and the three dimensions of each tumor were measured weekly. Female Wistar Furth rats (5 to 6 weeks of age, 100 to 125 g) were subcutaneously inoculated with the DMBA-4 transplantable, metastatic mammary tumor (10^5 viable tumor cells) into one inguinal fat pad of each rat. The primary tumor emerged 7 to 10 days after inoculation. […] The survival rate and primary and metastatic tumor profiles were determined for the individual components and various combinations of the components.

[3] = weekly 150-200 mg/m^2 after inCVAX treatment, two breast cancer patients

In the case of `Oc1cccc(-c2c3nc(c(-c4cccc(O)c4)c4ccc([nH]4)c(-c4cccc(O)c4)c4nc(c(-c5cccc(O)c5)c5ccc2[nH]5)CC4)C=C3)c1` [mTHPC, meso-substituted tetra (meta-hydroxy-phenyl) chlorin], the “Number of Long-Term Surviving Mice” value ([1]; Laser (652 nm, 30 J/cm^2) + mTHPC 0.1 mg/kg i.v. 24 h before) is reported as 0 and the “Long-term Survival Rate” value ([1]; Laser + mTHPC 0.1 mg/kg i.v.) is reported as 0.0%.
With `CC(=O)O[C@H]1C(=O)[C@@]2(C)[C@H]([C@H](OC(=O)c3ccccc3)[C@]3(O)C[C@H](OC(=O)[C@H](O)[C@@H](NC(=O)c4ccccc4)c4ccccc4)C(C)=C1C3(C)C)[C@]1(OC(C)=O)CO[C@@H]1C[C@@H]2O` [Paclitaxel] the tumor response (breast cancer; weekly 75 mg/m^2 after response to cyclophosphamide slowed) was “the response was very good with shrinking tumors”.
In the case of Photofrin, the “Number of Long-Term Surviving Mice” value (EMT6 mammary sarcoma; Non-Thermal Laser + Photofrin 5 mg/kg i.v. 24 h before 630 nm light 60 J/cm^2) is reported as 3 and the “Long-term Survival Rate” value (EMT6 mammary sarcoma; Non-Thermal Laser + Photofrin 5 mg/kg i.v., no GC) is reported as 37.5%.
With `O=P1(N(CCCl)CCCl)NCCCO1` (centres unmarked) [cyclophosphamide] the adverse reactions (breast cancer; [3]) was “minimal adverse reactions” and the tumor response (breast cancer; [3]) was “responded well to the treatment with tumor shrinkage”.
With `CC1(C)C(/C=C/C=C/C=C/C=C2\N(CCCCS(=O)(=O)O)c3ccc4ccccc4c3C2(C)C)=[N+](CCCCS(=O)(=O)[O-])c2ccc3ccccc3c21` [indocyanine green] the “survival after single component treatment” value [2] was “average survival times similar to the control group”.
